Experiments:
[1] = molecular target: T1, Formyl peptide receptor 2 (Mus musculus, UniProt O88536); test: Agonist activity at mouse FPR2 expressed in CHO-A12 cells assessed as cAMP level incubated for 1.5 hr by HTRF assay; type: cell-based
T1 sequence (O88536 whole entry): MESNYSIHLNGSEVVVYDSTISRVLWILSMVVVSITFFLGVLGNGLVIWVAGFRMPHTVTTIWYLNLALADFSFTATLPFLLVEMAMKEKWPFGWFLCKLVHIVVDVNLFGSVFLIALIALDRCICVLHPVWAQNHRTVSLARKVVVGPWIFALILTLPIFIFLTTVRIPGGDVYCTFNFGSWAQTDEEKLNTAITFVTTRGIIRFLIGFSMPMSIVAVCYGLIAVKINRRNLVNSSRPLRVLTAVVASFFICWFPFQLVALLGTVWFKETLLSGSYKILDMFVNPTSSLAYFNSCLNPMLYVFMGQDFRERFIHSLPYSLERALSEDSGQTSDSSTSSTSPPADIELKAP

HL-60 [2] = test: Inhibition of cell migration in human HL-60 cells incubated for 120 mins in presence of serum amyloid A by transwell assay; type: functional, cell-based; details: HL-60, 2 h
Rattus norvegicus [3] = test: Neuroprotective activity against ischemia-reperfusion injury Sprague-Dawley rat model assessed as increase in proximal viable myocardium at 10 mg/kg,po qd measured after 6 weeks; type: functional
fMet-Leu-Phe receptor [4] = molecular target: T2, fMet-Leu-Phe receptor (Mus musculus, UniProt P33766); test: Agonist activity at mouse FPR1 expressed in CHO-A12 cells assessed as cAMP level incubated for 1.5 hr by HTRF assay; type: cell-based
T2 sequence (P33766 whole entry): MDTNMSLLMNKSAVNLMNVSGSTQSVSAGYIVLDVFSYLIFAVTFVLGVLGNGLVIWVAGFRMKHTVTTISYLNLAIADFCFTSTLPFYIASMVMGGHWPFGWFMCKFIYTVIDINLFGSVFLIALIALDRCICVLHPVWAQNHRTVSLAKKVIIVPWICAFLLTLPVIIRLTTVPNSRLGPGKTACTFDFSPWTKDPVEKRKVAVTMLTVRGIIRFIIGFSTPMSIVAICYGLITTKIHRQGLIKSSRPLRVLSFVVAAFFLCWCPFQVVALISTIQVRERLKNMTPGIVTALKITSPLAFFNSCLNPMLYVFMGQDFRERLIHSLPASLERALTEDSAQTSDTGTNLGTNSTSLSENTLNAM

Rattus norvegicus [5] = test: Neuroprotective activity against ischemia-reperfusion injury Sprague-Dawley rat model assessed as increase in ejection fraction at 10 mg/kg,po qd measured after 6 weeks; type: functional
Mus musculus [6] = test: Neuroprotective activity against Myocardial infarction C57BL/6 mouse model assessed as reduction in infarct area at 1 mg/kg,po qd measured after 4 weeks; type: functional; set-up: scale not given: the % may be the effect or the level left
[7] = molecular target: T3, N-formyl peptide receptor 2 (Homo sapiens, UniProt P25090); test: Agonist activity at human FPR2 expressed in CHO-K1 cells by beta-arrestin recruitment assay; type: cell-based
T3 sequence (P25090 whole entry): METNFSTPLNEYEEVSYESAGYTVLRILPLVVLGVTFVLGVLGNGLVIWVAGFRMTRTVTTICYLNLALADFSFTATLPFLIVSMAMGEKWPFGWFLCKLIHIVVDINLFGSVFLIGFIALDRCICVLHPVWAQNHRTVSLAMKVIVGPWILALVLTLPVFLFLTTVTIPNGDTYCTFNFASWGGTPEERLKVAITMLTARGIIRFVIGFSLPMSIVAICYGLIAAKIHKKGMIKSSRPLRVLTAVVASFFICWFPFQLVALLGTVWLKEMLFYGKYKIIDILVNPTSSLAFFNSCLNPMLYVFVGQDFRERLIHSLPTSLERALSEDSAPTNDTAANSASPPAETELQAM

[8] = molecular target: T4, Formyl peptide receptor-related sequence 1 (Mus musculus, UniProt O08790); test: Agonist activity at mouse FPR3 expressed in CHO-A12 cells assessed as cAMP level incubated for 1.5 hr by HTRF assay; type: cell-based
T4 sequence (O08790 whole entry): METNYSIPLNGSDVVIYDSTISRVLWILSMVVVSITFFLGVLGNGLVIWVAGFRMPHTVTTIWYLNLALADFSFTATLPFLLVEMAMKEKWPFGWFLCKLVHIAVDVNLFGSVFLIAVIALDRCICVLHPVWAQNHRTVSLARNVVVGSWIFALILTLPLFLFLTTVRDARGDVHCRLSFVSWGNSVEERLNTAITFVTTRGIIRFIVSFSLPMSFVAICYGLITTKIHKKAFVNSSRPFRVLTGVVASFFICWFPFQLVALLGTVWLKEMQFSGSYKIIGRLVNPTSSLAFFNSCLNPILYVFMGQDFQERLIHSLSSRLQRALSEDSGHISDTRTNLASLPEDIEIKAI

Rattus norvegicus [9] = test: Neuroprotective activity against ischemia-reperfusion injury Sprague-Dawley rat model assessed as increase in mid viable myocardium at 10 mg/kg,po qd measured after 6 weeks; type: functional
Rattus norvegicus [10] = test: Neuroprotective activity against ischemia-reperfusion injury Sprague-Dawley rat model assessed as increase in distal viable myocardium at 10 mg/kg,po qd measured after 6 weeks; type: functional
Mus musculus [11] = test: Neuroprotective activity against Myocardial infarction C57BL/6 mouse model assessed as fold increase in infarct wall thickness at 10 mg/kg,po qd measured after 4 weeks; type: functional
HL-60 [12] = test: Induction of cell migration in human HL-60 cells incubated for 120 mins by transwell assay; type: functional, cell-based; details: HL-60, 2 h
Mus musculus [13] = test: Neuroprotective activity against Myocardial infarction C57BL/6 mouse model assessed as reduction in infarct area at 10 mg/kg,po qd measured after 4 weeks; type: functional; set-up: scale not given: the % may be the effect or the level left
fMet-Leu-Phe receptor [14] = molecular target: T5, fMet-Leu-Phe receptor (Homo sapiens, UniProt P21462); test: Agonist activity at human FPR1 expressed in CHO-A12 cells assessed as cAMP level incubated for 1.5 hr by HTRF assay; type: cell-based
T5 sequence (P21462 whole entry): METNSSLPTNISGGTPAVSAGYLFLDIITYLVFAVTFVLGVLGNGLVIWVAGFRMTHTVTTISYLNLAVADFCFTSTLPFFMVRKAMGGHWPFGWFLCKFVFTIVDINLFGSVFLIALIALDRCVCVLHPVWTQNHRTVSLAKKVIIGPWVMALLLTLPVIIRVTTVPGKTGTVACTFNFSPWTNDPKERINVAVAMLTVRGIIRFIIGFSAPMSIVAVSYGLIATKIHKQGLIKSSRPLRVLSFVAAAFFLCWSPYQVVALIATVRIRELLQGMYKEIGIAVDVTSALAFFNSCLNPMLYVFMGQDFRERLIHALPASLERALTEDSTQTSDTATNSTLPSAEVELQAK

[15] = molecular target: T3, N-formyl peptide receptor 2; test: Agonist activity at human FPR2 expressed in CHO-A12 cells assessed as cAMP level incubated for 1.5 hr by HTRF assay; type: cell-based

## Cn1c(C(C)(C)C)c(NC(=O)Nc2ccc(Cl)cc2)c(=O)n1-c1ccccc1
[1]
  EC50: 50 nM
HL-60 [2]
  IC50: 189 nM
Rattus norvegicus [3]
  Activity: 34%
fMet-Leu-Phe receptor [4]
  EC50: 20 nM
Rattus norvegicus [5]
  Activity: 32%
Mus musculus [6]
  Activity: 44%
[7]
  EC50: 3100 nM
[8]
  EC50: > 1000 nM
Rattus norvegicus [9]
  Activity: 44%
Rattus norvegicus [10]
  Activity: 35%
Mus musculus [11]
  fold change (FC): 1.6
HL-60 [12]
  EC50: 78 nM
Mus musculus [13]
  Activity: 49%
fMet-Leu-Phe receptor [14]
  EC50: 50 nM
[15]
  EC50: 10 nM

Source: ChEMBL document CHEMBL5233265, “Recent advances in the design and development of formyl peptide receptor 2 (FPR2/ALX) agonists as pro-resolving agents with diverse therapeutic potential” (Eur J Med Chem, 2021)
